Like-named read-outs stand apart in the source and are kept apart here.
Columns and labels:
Assay in all cases: KINOMEscan assay (Eurofins DiscoverX)
Assay type in all cases: binding
kinome (kinase panel) [1] = target: T1, kinome (kinase panel) (Homo sapiens, UniProt O00329); settings: PIK3CD; 1000 nM; read-out: Percent Control
T1 construct: purchased Eurofins DiscoverX

kinome (kinase panel) [2] = target: T2, kinome (kinase panel) (Homo sapiens, UniProt O14730); settings: RIOK3; 1000 nM; read-out: Percent Control
T2 construct: purchased Eurofins DiscoverX

kinome (kinase panel) [3] = target: T3, kinome (kinase panel) (Homo sapiens, UniProt O43353); settings: RIPK2; 1000 nM; read-out: Percent Control
T3 construct: purchased Eurofins DiscoverX

kinome (kinase panel) [4] = target: T4, kinome (kinase panel) (Homo sapiens, UniProt O95382); settings: ASK2 (Entrez MAP3K6); 1000 nM; read-out: Percent Control
T4 construct: purchased Eurofins DiscoverX

kinome (kinase panel) [5] = target: T5, kinome (kinase panel) (Homo sapiens, UniProt P00533, L858R/T790M); settings: read-out: Percent Control
T5 construct: purchased Eurofins DiscoverX

kinome (kinase panel) [6] = target: T6, kinome (kinase panel) (Homo sapiens, UniProt P06241); settings: FYN; 1000 nM; read-out: Percent Control
T6 construct: purchased Eurofins DiscoverX

kinome (kinase panel) [7] = target: T7, kinome (kinase panel) (Homo sapiens, UniProt P08069); settings: IGF1R; 1000 nM; read-out: Percent Control
T7 construct: purchased Eurofins DiscoverX

kinome (kinase panel) [8] = target: T8, kinome (kinase panel) (Homo sapiens, UniProt P0C264); settings: SgK110; 1000 nM; read-out: Percent Control
T8 construct: purchased Eurofins DiscoverX

kinome (kinase panel) [9] = target: T9, kinome (kinase panel) (Homo sapiens, UniProt P10721, L576P); settings: […]; 1000 nM; read-out: Percent Control
T9 construct: purchased Eurofins DiscoverX

kinome (kinase panel) [10] = target: T10, kinome (kinase panel) (Homo sapiens, UniProt P15056); settings: BRAF; 1000 nM; read-out: Percent Control
T10 construct: purchased Eurofins DiscoverX

kinome (kinase panel) [11] = target: T11, kinome (kinase panel) (Homo sapiens, UniProt P22455); settings: FGFR4; 1000 nM; read-out: Percent Control
T11 construct: purchased Eurofins DiscoverX

kinome (kinase panel) [12] = target: T12, kinome (kinase panel) (Homo sapiens, UniProt P31749); settings: AKT1; 1000 nM; read-out: Percent Control
T12 construct: purchased Eurofins DiscoverX

kinome (kinase panel) [13] = target: T13, kinome (kinase panel) (Homo sapiens, UniProt P36897); settings: TGFBR1; 1000 nM; read-out: Percent Control
T13 construct: purchased Eurofins DiscoverX

kinome (kinase panel) [14] = target: T14, kinome (kinase panel) (Homo sapiens, UniProt P42336, C420R); settings: read-out: Percent Control
T14 construct: purchased Eurofins DiscoverX

kinome (kinase panel) [15] = target: T15, kinome (kinase panel) (Homo sapiens, UniProt P51817); settings: PRKX; 1000 nM; read-out: Percent Control
T15 construct: purchased Eurofins DiscoverX

kinome (kinase panel) [16] = target: T16, kinome (kinase panel) (Homo sapiens, UniProt P78362); settings: SRPK2; 1000 nM; read-out: Percent Control
T16 construct: purchased Eurofins DiscoverX

kinome (kinase panel) [17] = target: T17, kinome (kinase panel) (Homo sapiens, UniProt Q00532); settings: CDKL1; 1000 nM; read-out: Percent Control
T17 construct: purchased Eurofins DiscoverX

kinome (kinase panel) [18] = target: T18, kinome (kinase panel) (Homo sapiens, UniProt Q13153); settings: PAK1; 1000 nM; read-out: Percent Control
T18 construct: purchased Eurofins DiscoverX

kinome (kinase panel) [19] = target: T19, kinome (kinase panel) (Homo sapiens, UniProt Q15418); settings: 1000 nM, read-out: Percent Control
T19 construct: purchased Eurofins DiscoverX

kinome (kinase panel) [20] = target: T20, kinome (kinase panel) (Homo sapiens, UniProt Q15746); settings: MYLK; 1000 nM; read-out: Percent Control
T20 construct: purchased Eurofins DiscoverX

kinome (kinase panel) [21] = target: T21, kinome (kinase panel) (Homo sapiens, UniProt Q16288); settings: TRKC (NTRK3); 1000 nM; read-out: Percent Control
T21 construct: purchased Eurofins DiscoverX

kinome (kinase panel) [22] = target: T22, kinome (kinase panel) (Homo sapiens, UniProt Q59H18); settings: TNNI3K; 1000 nM; read-out: Percent Control
T22 construct: purchased Eurofins DiscoverX

kinome (kinase panel) [23] = target: T23, kinome (kinase panel) (Homo sapiens, UniProt Q86UE8); settings: TLK2; 1000 nM; read-out: Percent Control
T23 construct: purchased Eurofins DiscoverX

kinome (kinase panel) [24] = target: T24, kinome (kinase panel) (Homo sapiens, UniProt Q86UX6); settings: YANK3 (STK32C); 1000 nM; read-out: Percent Control
T24 construct: purchased Eurofins DiscoverX

kinome (kinase panel) [25] = target: T25, kinome (kinase panel) (Homo sapiens, UniProt Q96GD4); settings: AURKB; 1000 nM; read-out: Percent Control
T25 construct: purchased Eurofins DiscoverX

kinome (kinase panel) [26] = target: T26, kinome (kinase panel) (Homo sapiens, UniProt Q9BWU1); settings: CDK11 (Entrez CDK19); 1000 nM; read-out: Percent Control
T26 construct: purchased Eurofins DiscoverX

kinome (kinase panel) [27] = target: T27, kinome (kinase panel) (Homo sapiens, UniProt Q9BYT3); settings: STK33; 1000 nM; read-out: Percent Control
T27 construct: purchased Eurofins DiscoverX

kinome (kinase panel) [28] = target: T28, kinome (kinase panel) (Homo sapiens, UniProt Q9H4B4); settings: PLK3; 1000 nM; read-out: Percent Control
T28 construct: purchased Eurofins DiscoverX

kinome (kinase panel) [29] = target: T29, kinome (kinase panel) (Homo sapiens, UniProt Q9UBF8); settings: PIK4CB (Entrez PI4KB); 1000 nM; read-out: Percent Control
T29 construct: purchased Eurofins DiscoverX

kinome (kinase panel) [30] = target: T30, kinome (kinase panel) (Homo sapiens, UniProt Q9Y243); settings: AKT3; 1000 nM; read-out: Percent Control
T30 construct: purchased Eurofins DiscoverX

kinome (kinase panel) [31] = target: T31, kinome (kinase panel) (Homo sapiens, UniProt Q9Y2K2); settings: QSK (Entrez KIAA0999); 1000 nM; read-out: Percent Control
T31 construct: purchased Eurofins DiscoverX

kinome (kinase panel) [32] = target: T32, kinome (kinase panel) (Homo sapiens, UniProt Q9Y5S2); settings: MRCKB (Entrez CDC42BPB); 1000 nM; read-out: Percent Control
T32 construct: purchased Eurofins DiscoverX

T19 sequence (Q15418 whole entry): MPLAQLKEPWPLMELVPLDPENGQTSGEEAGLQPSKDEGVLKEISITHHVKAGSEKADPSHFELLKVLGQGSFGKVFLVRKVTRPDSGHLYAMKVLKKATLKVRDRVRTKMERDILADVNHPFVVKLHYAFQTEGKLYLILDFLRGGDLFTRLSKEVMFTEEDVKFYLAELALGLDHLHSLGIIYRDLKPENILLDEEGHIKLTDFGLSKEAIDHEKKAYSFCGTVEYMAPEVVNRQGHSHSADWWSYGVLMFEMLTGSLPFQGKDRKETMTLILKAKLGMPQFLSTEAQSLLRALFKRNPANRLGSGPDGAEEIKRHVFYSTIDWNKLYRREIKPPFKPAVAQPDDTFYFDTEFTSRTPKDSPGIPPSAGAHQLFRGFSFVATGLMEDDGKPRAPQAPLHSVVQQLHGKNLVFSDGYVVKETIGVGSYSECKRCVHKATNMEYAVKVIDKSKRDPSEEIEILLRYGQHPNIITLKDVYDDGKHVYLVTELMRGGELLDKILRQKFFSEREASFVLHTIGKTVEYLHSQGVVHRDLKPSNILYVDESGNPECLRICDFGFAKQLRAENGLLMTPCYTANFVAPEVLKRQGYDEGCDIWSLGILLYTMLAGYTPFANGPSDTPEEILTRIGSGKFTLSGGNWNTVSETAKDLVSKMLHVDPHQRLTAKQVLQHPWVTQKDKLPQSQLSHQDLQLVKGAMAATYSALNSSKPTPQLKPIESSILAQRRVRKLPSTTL
T14 sequence (P42336 whole entry C420R): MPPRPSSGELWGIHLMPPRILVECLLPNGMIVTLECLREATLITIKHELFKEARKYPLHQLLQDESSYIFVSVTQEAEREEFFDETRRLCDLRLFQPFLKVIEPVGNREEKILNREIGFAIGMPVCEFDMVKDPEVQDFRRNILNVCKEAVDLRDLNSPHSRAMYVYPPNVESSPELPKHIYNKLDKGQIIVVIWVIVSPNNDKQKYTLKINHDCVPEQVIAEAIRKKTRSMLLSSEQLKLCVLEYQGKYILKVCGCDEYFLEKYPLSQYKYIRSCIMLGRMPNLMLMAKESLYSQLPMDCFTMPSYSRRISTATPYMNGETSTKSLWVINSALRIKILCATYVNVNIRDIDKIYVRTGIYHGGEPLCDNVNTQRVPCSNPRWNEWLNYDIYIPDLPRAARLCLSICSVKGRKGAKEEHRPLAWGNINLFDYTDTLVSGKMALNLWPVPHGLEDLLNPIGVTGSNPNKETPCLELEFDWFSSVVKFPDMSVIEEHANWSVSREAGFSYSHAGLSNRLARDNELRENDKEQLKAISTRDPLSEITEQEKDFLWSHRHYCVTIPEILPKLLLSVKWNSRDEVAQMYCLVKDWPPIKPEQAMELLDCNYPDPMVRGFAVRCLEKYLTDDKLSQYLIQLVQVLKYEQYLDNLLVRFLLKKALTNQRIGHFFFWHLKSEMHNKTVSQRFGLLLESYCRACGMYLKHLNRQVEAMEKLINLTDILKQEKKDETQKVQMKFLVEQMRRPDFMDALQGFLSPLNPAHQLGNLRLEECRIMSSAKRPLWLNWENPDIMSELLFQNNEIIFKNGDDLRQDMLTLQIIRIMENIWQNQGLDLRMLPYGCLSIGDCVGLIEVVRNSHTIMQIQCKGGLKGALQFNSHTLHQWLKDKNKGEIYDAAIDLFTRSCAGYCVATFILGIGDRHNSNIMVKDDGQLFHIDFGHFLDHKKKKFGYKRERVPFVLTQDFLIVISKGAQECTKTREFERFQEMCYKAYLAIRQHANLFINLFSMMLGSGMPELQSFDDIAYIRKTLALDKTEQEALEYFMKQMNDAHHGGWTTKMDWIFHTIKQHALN
T10 sequence (P15056 whole entry): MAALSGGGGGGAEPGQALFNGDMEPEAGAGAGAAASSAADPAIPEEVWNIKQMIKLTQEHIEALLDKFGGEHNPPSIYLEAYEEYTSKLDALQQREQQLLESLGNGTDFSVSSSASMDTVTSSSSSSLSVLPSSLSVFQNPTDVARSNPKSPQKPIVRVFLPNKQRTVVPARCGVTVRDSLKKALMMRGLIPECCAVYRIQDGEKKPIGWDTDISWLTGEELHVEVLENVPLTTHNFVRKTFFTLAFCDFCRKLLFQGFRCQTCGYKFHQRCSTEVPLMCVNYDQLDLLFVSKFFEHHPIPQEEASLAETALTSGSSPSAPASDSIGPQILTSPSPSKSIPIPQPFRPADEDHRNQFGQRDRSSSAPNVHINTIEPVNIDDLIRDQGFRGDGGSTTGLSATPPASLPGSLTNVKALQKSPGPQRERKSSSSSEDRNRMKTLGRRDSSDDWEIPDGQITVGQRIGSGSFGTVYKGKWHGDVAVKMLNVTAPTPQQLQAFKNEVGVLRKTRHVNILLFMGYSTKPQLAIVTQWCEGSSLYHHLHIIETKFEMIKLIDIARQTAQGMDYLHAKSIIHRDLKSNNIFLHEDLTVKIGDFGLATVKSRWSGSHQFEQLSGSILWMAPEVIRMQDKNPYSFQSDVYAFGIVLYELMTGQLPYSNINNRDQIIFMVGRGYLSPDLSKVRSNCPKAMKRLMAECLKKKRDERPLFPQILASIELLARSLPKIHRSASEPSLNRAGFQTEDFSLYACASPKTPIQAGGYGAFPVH
T22 sequence (Q59H18 whole entry): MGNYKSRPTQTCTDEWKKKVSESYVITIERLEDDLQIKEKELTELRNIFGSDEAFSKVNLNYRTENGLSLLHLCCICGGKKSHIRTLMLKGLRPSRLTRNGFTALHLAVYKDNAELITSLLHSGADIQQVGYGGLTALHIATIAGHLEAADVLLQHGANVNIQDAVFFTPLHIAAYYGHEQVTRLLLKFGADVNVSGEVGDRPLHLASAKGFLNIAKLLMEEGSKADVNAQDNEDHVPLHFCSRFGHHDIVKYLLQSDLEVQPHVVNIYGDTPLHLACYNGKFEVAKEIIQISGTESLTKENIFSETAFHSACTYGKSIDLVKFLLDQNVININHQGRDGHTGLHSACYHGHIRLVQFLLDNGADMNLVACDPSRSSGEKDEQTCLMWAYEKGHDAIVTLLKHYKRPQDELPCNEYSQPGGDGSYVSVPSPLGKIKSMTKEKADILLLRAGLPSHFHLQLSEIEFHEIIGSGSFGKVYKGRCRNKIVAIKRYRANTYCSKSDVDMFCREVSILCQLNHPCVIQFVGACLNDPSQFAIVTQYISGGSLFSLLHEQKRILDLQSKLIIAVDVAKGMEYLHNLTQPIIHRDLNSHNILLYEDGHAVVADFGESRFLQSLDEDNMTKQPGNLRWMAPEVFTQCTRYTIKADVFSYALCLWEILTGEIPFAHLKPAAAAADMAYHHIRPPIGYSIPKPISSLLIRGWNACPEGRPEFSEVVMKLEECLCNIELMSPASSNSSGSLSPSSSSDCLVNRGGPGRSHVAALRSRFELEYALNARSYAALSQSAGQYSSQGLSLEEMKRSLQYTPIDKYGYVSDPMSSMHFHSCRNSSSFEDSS
T18 sequence (Q13153 whole entry): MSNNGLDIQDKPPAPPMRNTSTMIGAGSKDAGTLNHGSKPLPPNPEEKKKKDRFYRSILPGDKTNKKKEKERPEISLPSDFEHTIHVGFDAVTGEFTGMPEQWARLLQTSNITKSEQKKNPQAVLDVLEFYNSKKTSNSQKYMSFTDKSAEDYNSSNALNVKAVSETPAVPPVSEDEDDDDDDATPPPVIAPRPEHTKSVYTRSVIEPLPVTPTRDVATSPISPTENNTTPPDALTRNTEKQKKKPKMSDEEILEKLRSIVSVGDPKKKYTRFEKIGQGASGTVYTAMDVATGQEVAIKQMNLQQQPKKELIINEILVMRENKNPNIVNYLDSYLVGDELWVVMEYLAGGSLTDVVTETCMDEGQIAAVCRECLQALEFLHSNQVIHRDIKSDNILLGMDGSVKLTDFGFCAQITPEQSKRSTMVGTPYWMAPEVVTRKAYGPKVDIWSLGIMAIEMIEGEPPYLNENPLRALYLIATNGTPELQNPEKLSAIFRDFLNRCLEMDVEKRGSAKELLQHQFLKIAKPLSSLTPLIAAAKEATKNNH
T29 sequence (Q9UBF8 whole entry): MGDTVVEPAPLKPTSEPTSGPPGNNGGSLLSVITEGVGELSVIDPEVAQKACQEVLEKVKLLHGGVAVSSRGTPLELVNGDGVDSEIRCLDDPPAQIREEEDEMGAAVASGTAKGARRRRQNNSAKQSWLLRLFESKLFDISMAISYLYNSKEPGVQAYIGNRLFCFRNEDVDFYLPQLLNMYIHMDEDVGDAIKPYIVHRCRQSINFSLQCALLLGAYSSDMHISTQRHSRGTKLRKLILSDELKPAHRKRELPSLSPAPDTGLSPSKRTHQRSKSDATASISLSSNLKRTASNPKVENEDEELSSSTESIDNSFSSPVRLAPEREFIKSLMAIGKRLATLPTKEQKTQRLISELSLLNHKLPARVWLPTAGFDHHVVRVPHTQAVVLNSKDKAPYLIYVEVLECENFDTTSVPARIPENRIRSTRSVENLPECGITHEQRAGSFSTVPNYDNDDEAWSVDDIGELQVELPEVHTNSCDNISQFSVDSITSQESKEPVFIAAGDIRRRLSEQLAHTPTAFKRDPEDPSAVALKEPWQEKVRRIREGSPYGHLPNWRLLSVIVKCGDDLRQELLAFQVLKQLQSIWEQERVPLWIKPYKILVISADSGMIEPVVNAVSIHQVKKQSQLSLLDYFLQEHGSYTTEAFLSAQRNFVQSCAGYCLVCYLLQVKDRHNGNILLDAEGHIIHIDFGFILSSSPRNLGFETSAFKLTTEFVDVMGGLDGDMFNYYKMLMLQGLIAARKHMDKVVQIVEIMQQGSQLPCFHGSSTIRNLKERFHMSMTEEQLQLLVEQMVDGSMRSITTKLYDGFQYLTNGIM

`CN(C)C(=O)c1cc2cnc(Nc3ccc(-c4csc5c(=O)cc(N6CCOCC6)oc45)cc3)nc2n1C1CCCC1` [SRX3177] gave a remaining binding at 1 µM (kinome (kinase panel) [1]) of 63%, a remaining binding at 1 µM (kinome (kinase panel) [2]) of 21% and a remaining binding at 1 µM (kinome (kinase panel) [3]) of 93%. For the same molecule, the remaining binding at 1 µM (kinome (kinase panel) [4]) was 91%, the remaining binding at 1 µM (kinome (kinase panel) [5]) was 58% and the remaining binding at 1 µM (kinome (kinase panel) [6]) was 96%. It also gave a remaining binding at 1 µM (kinome (kinase panel) [7]) of 100%, a remaining binding at 1 µM (kinome (kinase panel) [8]) of 38% and a remaining binding at 1 µM (kinome (kinase panel) [9]) of 58%. The remaining binding at 1 µM (kinome (kinase panel) [10]) was 79%, the remaining binding at 1 µM (kinome (kinase panel) [11]) was 86% and the remaining binding at 1 µM (kinome (kinase panel) [12]) was 100%. The remaining binding at 1 µM (kinome (kinase panel) [13]) was 100%, the remaining binding at 1 µM (kinome (kinase panel) [14]) was 81% and the remaining binding at 1 µM (kinome (kinase panel) [15]) was 96%. For the same molecule, the remaining binding at 1 µM (kinome (kinase panel) [16]) was 89%, the remaining binding at 1 µM (kinome (kinase panel) [17]) was 96% and the remaining binding at 1 µM (kinome (kinase panel) [18]) was 90%. It also gave a remaining binding at 1 µM (kinome (kinase panel) [19]; RSK1(Kin.Dom.1-N-terminal) (RPS6KA1)) of 100%, a remaining binding at 1 µM (kinome (kinase panel) [19]; RSK1(Kin.Dom.2-C-terminal) (RPS6KA1)) of 100% and a remaining binding at 1 µM (kinome (kinase panel) [20]) of 5.4%. For the same molecule, the remaining binding at 1 µM (kinome (kinase panel) [21]) was 37%, the remaining binding at 1 µM (kinome (kinase panel) [22]) was 94% and the remaining binding at 1 µM (kinome (kinase panel) [23]) was 100%. For the same molecule, the remaining binding at 1 µM (kinome (kinase panel) [24]) was 91%, the remaining binding at 1 µM (kinome (kinase panel) [25]) was 4.9% and the remaining binding at 1 µM (kinome (kinase panel) [26]) was 80%. The remaining binding at 1 µM (kinome (kinase panel) [27]) was 98%, the remaining binding at 1 µM (kinome (kinase panel) [28]) was 79% and the remaining binding at 1 µM (kinome (kinase panel) [29]) was 19%. It also gave a remaining binding at 1 µM (kinome (kinase panel) [30]) of 100%, a remaining binding at 1 µM (kinome (kinase panel) [31]) of 59% and a remaining binding at 1 µM (kinome (kinase panel) [32]) of 96%.
